Literature values, collected in patent US8389248B2, “Deoxyketohexose isomerase and method for producing deoxyhexose and derivative thereof using same” (priority 2006, dated 2013).

System: L-rhamnose isomerase
Details: for Influence of chelating agents on enzyme activity: chelating agent concurrently present during the assay of the activity

Structure (SMILES)	Influence of chelating agents on enzyme activity	Influence of metal ions: inhibition of the enzyme (1 mM)
O=C(O)CN(CCN(CC(=O)O)CC(=O)O)CC(=O)O [EDTA]	hardly inhibited	
O=C(O)CN(CCOCCOCCN(CC(=O)O)CC(=O)O)CC(=O)O [EGTA]	hardly inhibited	
[Co+2] [cobalt ion]		about 30%
